These results are taken from PubChem BioAssay (NCI).

Several values for one entry are separate records, joined by “and”; a condition that tells them apart may be missing. Equal values may be shown once.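 Values below derive from 48-hour exposures of cells grown in 96-well plates, with endpoints linearly interpolated between the two concentrations bracketing the appropriate inhibition level. GI50: concentration for 50% inhibition of growth. The concentration for full growth arrest is given as TGI.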 Some results are limits rather than exact numbers.

Some test systems named below: OVCAR-4 ovarian; OVCAR-5 ovarian; NCI-H226 lung; U251 CNS; SNB-19 CNS; SK-MEL-5 melanoma; K-562 leukemia; SNB-75 CNS; HCT-15 colon; A549 NSCLC.
Holding throughout (experiment): NCI-60 cell line screen, 48 h

Turning to `C=C1C(=O)C2(C)OC2(C)C1C(=O)O` (stereo not given), the TGI in the test on OVCAR-4 ovarian, in the test with OVCAR-5 ovarian, with NCI-H226 lung, in the test with U251 CNS, with SNB-19 CNS and in the test with SK-MEL-5 melanoma was over 100 µM each time. The TGI in the test on K-562 leukemia, with SNB-75 CNS, with HCT-15 colon and with A549 NSCLC was over 100 µM in each case.
In the case of `O=C(CSc1ncc(-c2ccccc2)n1-c1ccccc1)Nc1ccc(-c2nc3ccccc3s2)cc1`, the GI50 is over 100 µM in the test with OVCAR-5 ovarian; 43.3 µM in the test with NCI-H226 lung; 2.42 µM with U251 CNS; 15.1 µM in the test with SNB-19 CNS; over 100 µM in the test on SK-MEL-5 melanoma; over 100 µM in the test on K-562 leukemia. For the same molecule, the GI50 is 11.1 µM in the test on SNB-75 CNS and over 100 µM with HCT-15 colon. The TGI with OVCAR-5 ovarian was over 100 µM; in the test with NCI-H226 lung it was over 100 µM; with U251 CNS, 5.56 µM; in the test with SNB-19 CNS it was over 100 µM; in the test on SK-MEL-5 melanoma, over 100 µM; in the test on K-562 leukemia it was over 100 µM. For the same molecule, the figures for the TGI in the test with SNB-75 CNS and with HCT-15 colon were 29.6 µM and over 100 µM, respectively.
Turning to `CC(=O)C(C=O)C(C)=O.CC(=O)CC(C)=O.CC(=O)CC(C)=O.[Ru]`, the GI50 in the test on OVCAR-4 ovarian is 19.5 µM; in the test with OVCAR-5 ovarian it was 32.2 µM; in the test with NCI-H226 lung it was 5.83 µM; in the test with U251 CNS it was 29.1 µM; in the test on SNB-19 CNS it was 52.1 µM; in the test with SK-MEL-5 melanoma, 0.0279 µM. Moreover, the GI50 in the test with K-562 leukemia is 20.7 µM; in the test with SNB-75 CNS it was over 100 µM; in the test on HCT-15 colon, 11.7 µM; with A549 NSCLC, 33.5 µM. Also, the TGI was over 100 µM with OVCAR-4 ovarian; over 100 µM with OVCAR-5 ovarian; 35.2 µM in the test on NCI-H226 lung; over 100 µM in the test on U251 CNS; over 100 µM in the test with SNB-19 CNS; 2.1 µM with SK-MEL-5 melanoma. The TGI is over 100 µM in the test with K-562 leukemia, over 100 µM with SNB-75 CNS, 93.6 µM with HCT-15 colon and over 100 µM in the test with A549 NSCLC.
Turning to `O=C1C(Br)=CC2(C=C1Br)CCNc1c(O)c3c4c(c12)=NCCC=4C=N3`, the TGI in the test on OVCAR-4 ovarian was found to be 0.211 µM; in the test on OVCAR-5 ovarian it was 1.28 µM; in the test on NCI-H226 lung, 2.74 µM; with U251 CNS, 1.07 µM; in the test with SNB-19 CNS, 3.97 µM; in the test with SK-MEL-5 melanoma, 0.266 µM. Moreover, the TGI in the test with K-562 leukemia stood at 0.0921 µM; in the test with SNB-75 CNS, 2.16 µM; in the test with HCT-15 colon, 0.197 µM; in the test on A549 NSCLC, 3.09 µM.
Turning to `COc1cc2c(cc1O)C1CC(CC3CCCCN31)OC(=O)/C=C\c1ccc(O)c-2c1` (stereo not given), the TGI in the test with OVCAR-4 ovarian was over 100 µM; in the test on OVCAR-5 ovarian it was over 100 µM; in the test with NCI-H226 lung it was over 100 µM; in the test with U251 CNS, over 100 µM; with SNB-19 CNS, over 100 µM; in the test on SK-MEL-5 melanoma, 31.4 µM. Also, the TGI in the test on K-562 leukemia is over 100 µM; in the test with SNB-75 CNS it was 34.2 µM; in the test on HCT-15 colon, over 100 µM; in the test with A549 NSCLC, over 100 µM.
Turning to `COc1cccc(/C=C\c2ccnc3ccccc23)c1`, the TGI in the test with OVCAR-4 ovarian, in the test on OVCAR-5 ovarian, in the test on NCI-H226 lung, in the test on U251 CNS, in the test on SNB-19 CNS and in the test with SK-MEL-5 melanoma was over 10 µM in each case. The TGI in the test on K-562 leukemia, in the test with SNB-75 CNS, in the test on HCT-15 colon and with A549 NSCLC was over 10 µM in each case.
Take `N=C1C(c2nc3ccccc3s2)=C(O)CN1c1cc(Cl)cc(Cl)c1`: the GI50 in the test with OVCAR-4 ovarian is 37.4 µM; in the test with OVCAR-5 ovarian it was over 100 µM; in the test with NCI-H226 lung, over 100 µM; in the test on U251 CNS, 32.3 µM; in the test with SNB-19 CNS, over 100 µM; in the test with SK-MEL-5 melanoma, over 100 µM. The GI50 in the test on K-562 leukemia was over 100 µM; with SNB-75 CNS it was 18.7 µM; in the test with HCT-15 colon it was 0.705 µM; in the test with A549 NSCLC it was over 100 µM. Further, the TGI in the test on OVCAR-4 ovarian, with OVCAR-5 ovarian, with NCI-H226 lung, in the test with U251 CNS, in the test with SNB-19 CNS and in the test with SK-MEL-5 melanoma was over 100 µM throughout. In addition, the TGI in the test on K-562 leukemia was over 100 µM; in the test with SNB-75 CNS, 77.4 µM; in the test with HCT-15 colon, over 100 µM; with A549 NSCLC, over 100 µM.
Take `CCc1ccc([O-])c(C=NCCCN(C)CCCN=Cc2cc(C)ccc2[O-])c1.[Co+3].[N-]=[N+]=[N-]`: the GI50 with OVCAR-4 ovarian is 50 µg/mL and 90.8 µg/mL; in the test with OVCAR-5 ovarian, 50 µg/mL and 137 µg/mL; in the test with NCI-H226 lung, 50 µg/mL and 32.5 µg/mL; with U251 CNS, 20.1 µg/mL and 33 µg/mL; in the test with SNB-19 CNS it was 40.6 µg/mL and 61.6 µg/mL; in the test on SK-MEL-5 melanoma it was 50 µg/mL and 139 µg/mL. Also, the GI50 in the test with K-562 leukemia is 5 µg/mL and 74 µg/mL; in the test on SNB-75 CNS, 1.38 µg/mL and 10 µg/mL; in the test with HCT-15 colon, 29.5 µg/mL and 35.9 µg/mL; with A549 NSCLC, 50 µg/mL and 106 µg/mL. The TGI in the test on OVCAR-4 ovarian was 50 µg/mL and > 150 µg/mL; with OVCAR-5 ovarian, 50 µg/mL and > 150 µg/mL; in the test on NCI-H226 lung, 50 µg/mL and 88.6 µg/mL; in the test with U251 CNS it was 50 µg/mL and 123 µg/mL; in the test with SNB-19 CNS it was 50 µg/mL and 123 µg/mL; in the test with SK-MEL-5 melanoma, 50 µg/mL and > 150 µg/mL. The TGI was 50 µg/mL and > 150 µg/mL with HCT-15 colon; 50 µg/mL and > 150 µg/mL in the test on A549 NSCLC.
Turning to `Fc1ccc(-c2nn3c(COc4ccc(Cl)cc4Cl)nnc3s2)cc1Oc1ccccc1`, the GI50 was 24.6 µM in the test with OVCAR-4 ovarian; 11.1 µM in the test on OVCAR-5 ovarian; 21 µM in the test with NCI-H226 lung; 12.9 µM in the test on U251 CNS; 13.3 µM in the test on SNB-19 CNS; 23 µM in the test on SK-MEL-5 melanoma. In addition, the GI50 in the test with K-562 leukemia was 21.2 µM; with SNB-75 CNS, 32.2 µM; with HCT-15 colon it was 43.2 µM; in the test on A549 NSCLC, 20.7 µM. Moreover, the TGI in the test with OVCAR-4 ovarian was over 100 µM; in the test on OVCAR-5 ovarian, 23.7 µM; in the test on NCI-H226 lung it was 74 µM; in the test on U251 CNS, 25.6 µM; with SNB-19 CNS it was 26.1 µM; in the test with SK-MEL-5 melanoma it was 71.2 µM. The TGI was over 100 µM in the test with K-562 leukemia, 91.1 µM in the test with SNB-75 CNS, over 100 µM with HCT-15 colon and 62.2 µM with A549 NSCLC.
Regarding `CCCCCCCCCCCC(=O)OC(COC(N)=O)COc1ccc(Cl)cc1` (stereo not given), the TGI with OVCAR-4 ovarian stood at 40.9 µM; in the test on NCI-H226 lung, 46.1 µM; with U251 CNS it was 52.7 µM; in the test with SNB-19 CNS, 83 µM; in the test with SK-MEL-5 melanoma it was 32.8 µM; in the test on K-562 leukemia, 35.1 µM. Further, the TGI with SNB-75 CNS was over 100 µM; in the test with HCT-15 colon, 91.3 µM; with A549 NSCLC, 36.8 µM.
As for `N#Cc1c(N)c(C#N)c2c(c1-c1ccc(Cl)cc1)COc1ccc(F)cc1-2`, the GI50 with OVCAR-4 ovarian was over 50 µM; with OVCAR-5 ovarian it was 48.6 µM; with U251 CNS, 22 µM; in the test on SNB-19 CNS it was over 50 µM; with SK-MEL-5 melanoma, 16.4 µM; in the test with K-562 leukemia, over 50 µM. For the same molecule, the values for the GI50 with SNB-75 CNS, with HCT-15 colon and with A549 NSCLC were 25.6 µM, 43.8 µM and 42.6 µM, respectively. For the same molecule, the TGI with OVCAR-4 ovarian, with OVCAR-5 ovarian, in the test on U251 CNS, with SNB-19 CNS, in the test on SK-MEL-5 melanoma and with K-562 leukemia was over 50 µM each time. In addition, the TGI in the test with SNB-75 CNS, in the test with HCT-15 colon and in the test with A549 NSCLC was over 50 µM each time.
`O=C1CC[C@@H](NC(=O)Cc2ccccc2)C(=O)N1`: the TGI in the test on OVCAR-4 ovarian, in the test on OVCAR-5 ovarian, with NCI-H226 lung, in the test with U251 CNS, with SNB-19 CNS and with SK-MEL-5 melanoma was over 100 µM in each case. The TGI in the test with K-562 leukemia, in the test on SNB-75 CNS and in the test on A549 NSCLC was over 100 µM throughout.
As for `O=C(/C=C/c1ccc(O)cc1)c1cc(Cl)ccc1O`, the TGI is over 100 µM in the test on OVCAR-4 ovarian; over 100 µM with NCI-H226 lung; over 100 µM in the test with U251 CNS; over 100 µM in the test with SNB-19 CNS; over 100 µM with SK-MEL-5 melanoma; 71.3 µM in the test on K-562 leukemia. Besides, the TGI in the test with SNB-75 CNS and with A549 NSCLC was over 100 µM throughout.
As for `Cc1c(O)c(Br)c(C)c(O)c1Br` (tested in a mixture with another compound), the TGI in the test with OVCAR-4 ovarian is 3.04 µM; in the test with OVCAR-5 ovarian, 34.9 µM; in the test with NCI-H226 lung it was 14.8 µM; in the test with U251 CNS it was 24.4 µM; in the test with SNB-19 CNS it was 41.7 µM; with SK-MEL-5 melanoma, 11.4 µM. Besides, the TGI came out at 11.6 µM in the test on K-562 leukemia, 29.3 µM in the test with SNB-75 CNS and 60 µM in the test on A549 NSCLC.
In the case of `CNCCNc1nc2ccccc2c2c(=O)c3cccc(C)c3sc12`, the GI50 in the test with OVCAR-4 ovarian is 2.1 µM; with OVCAR-5 ovarian, 3.91 µM; in the test on NCI-H226 lung, 7.19 µM; with U251 CNS it was 0.968 µM; with SK-MEL-5 melanoma, 6.14 µM; with K-562 leukemia, 1.04 µM. Also, the figures for the GI50 in the test on SNB-75 CNS, with HCT-15 colon and in the test with A549 NSCLC were 1.14 µM, 1.13 µM and 1.82 µM, respectively. In addition, the TGI with OVCAR-4 ovarian worked out at 8.75 µM; with OVCAR-5 ovarian, 10.6 µM; in the test with NCI-H226 lung it was 16.7 µM; in the test on U251 CNS, 2.25 µM; in the test with SK-MEL-5 melanoma, 12.6 µM; in the test on K-562 leukemia, 2.33 µM. The TGI came out at 8.49 µM with SNB-75 CNS, 2.67 µM in the test on HCT-15 colon and 7.5 µM in the test on A549 NSCLC.
